In US9540323B2 (BRISTOL-MYERS SQUIBB COMPANY, priority 2012, dated 2017):
Where a name gives a salt, the structure may show the parent alone.

Tests used:
[1] = target: cloned human P2Y1 receptors (Homo sapiens (Human), UniProt P47900); assay: Binding Assay B - Scintillation Proximity Assay (SPA) for P2Y1 binding, [33P] 2MeS-ADP; details: SPA, 0.3 nM [33P] 2MeS-ADP, Cheng-Prusoff; read-out: P2Y1 Ki (nM) using binding assay B
Protocol: Binding Assay B—Scintillation Proximity Assay (SPA) for P2Y1 Binding
A SPA membrane binding assay was used to identify inhibitors of [^33P] […] Reactions were allowed to proceed to completion at room temperature for 1 hour followed by centrifugation of the plate for 5 min. About 40 μL of the aqueous solution was aspirated. Plates were sealed and the [^33P]

[2] = test system: human platelet rich plasma (PRP); assay: ADP induced platelet aggregation assay; details: Homo sapiens, Platelet, 5 min, read-out: PA IC50 (μM) @ 10 μM ADP, human PRP, 10 μM ADP, AUC at 5 minute

Sequence of cloned human P2Y1 receptors (P47900 whole entry): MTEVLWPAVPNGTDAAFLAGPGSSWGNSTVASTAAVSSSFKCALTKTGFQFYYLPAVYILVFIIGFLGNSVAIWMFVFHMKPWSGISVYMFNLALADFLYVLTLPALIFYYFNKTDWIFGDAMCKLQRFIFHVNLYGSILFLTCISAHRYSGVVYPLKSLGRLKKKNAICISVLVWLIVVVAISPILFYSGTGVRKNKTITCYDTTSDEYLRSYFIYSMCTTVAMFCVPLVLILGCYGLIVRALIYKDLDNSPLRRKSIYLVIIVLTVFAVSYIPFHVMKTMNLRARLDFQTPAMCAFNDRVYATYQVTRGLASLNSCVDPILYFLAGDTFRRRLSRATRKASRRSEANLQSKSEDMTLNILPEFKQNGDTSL

Row | Structure (SMILES) | Ki [1] [nM] | IC50 [2] [µM]
1 | Cc1ccnc2oc(-c3ccc(O)c4c3C(C)(C)CN4c3ccccc3NC(=O)Nc3ccc(OC(F)(F)F)cc3)nc12 [Example 103, 1-(2-(7-Hydroxy-3,3-dimethyl-4-(7-methyloxazolo[5,4-b]pyridin-2-yl)indolin-1-yl)phenyl)-3-(4-(trifluoromethoxy)phenyl)urea] | 11.1 | 1.03
2 | CC1(C)CN(c2ccccc2NC(=O)Nc2ccc(OC(F)(F)F)cc2)c2c(O)ccc(C3=NC(C(C)(C)C)CO3)c21 (stereo not drawn) [Example 104, 1-(2-(4-(4-tert-Butyl-4,5-dihydrooxazol-2-yl)-7-hydroxy-3,3-dimethylindolin-1-yl)phenyl)-3-(4-(trifluoromethoxy)phenyl)urea] | 9.1 | 0.46
3 | CC1(C)CN(c2ccccc2NC(=O)Nc2ccc(OC(F)(F)F)cc2)c2c(O)ccc(C3=NCC(C(F)(F)F)O3)c21 (stereo not drawn) [Example 105, 1-(2-(7-Hydroxy-3,3-dimethyl-4-(5-(trifluoromethyl)-4,5-dihydrooxazol-2-yl)indolin-1-yl)phenyl)-3-(4-(trifluoromethoxy)phenyl)urea] | 8.8 | 1.57
4 | CC1(C)CN(c2ccccc2NC(=O)Nc2ccc(OC(F)(F)F)cc2)c2c(O)ccc(-c3nc4c(CO)cccc4o3)c21 [Example 106, 1-(2-(7-Hydroxy-4-(4-(hydroxymethyl)benzo[d]oxazol-2-yl)-3,3-dimethylindolin-1-yl)phenyl)-3-(4-(trifluoromethoxy)phenyl) urea] | 364 | 3.28
5 | CNc1ncnc2oc(-c3ccc(O)c4c3C(C)(C)CN4c3ccccc3NC(=O)Nc3ccc(OC(F)(F)F)cc3)nc12 [Example 107, 1-(2-(7-Hydroxy-3,3-dimethyl-4-(7-(methylamino)oxazolo[5,4-d]pyrimidin-2-yl)indolin-1-yl)phenyl)-3-(4-(trifluoromethoxy)phenyl)urea] | 24 | 3.85
6 | CC1(C)CN(c2ccccc2NC(=O)Nc2nc3ccc(F)nc3s2)c2c(O)ccc(-c3nc4ccc(Cl)cc4o3)c21 [Example 108, 1-(2-(4-(6-Chlorobenzo[d]oxazol-2-yl)-7-hydroxy-3,3-dimethylindolin-1-yl)phenyl)-3-(5-fluorothiazolo[5,4-b]pyridin-2-yl)urea] | 9.7 | 0.19
7 | CC(C)(C)CN1CCCC1c1ccc(NC(=O)Nc2ccccc2N2CC(C)(C)c3c(-c4nc5ccc(Cl)cc5o4)ccc(O)c32)cc1 (stereo not drawn) [Example 109, 1-(2-(4-(6-Chlorobenzo[d]oxazol-2-yl)-7-hydroxy-3,3-dimethylindolin-1-yl)phenyl)-3-(4-(1-neopentylpyrrolidin-2-yl)phenyl)urea] | 22 | 0.13
8 | COc1ccc2nc(NC(=O)Nc3ccccc3N3CC(C)(C)c4c(-c5nc6ccc(Cl)cc6o5)ccc(O)c43)sc2n1 [Example 110, 1-(2-(4-(6-Chlorobenzo[d]oxazol-2-yl)-7-hydroxy-3,3-dimethylindolin-1-yl)phenyl)-3-(5-methoxythiazolo[5,4-b]pyridin-2-yl)urea] | 15.4 | 0.31
9 | CC1(C)CN(c2ccccc2NC(=O)Nc2ccc(OC(F)(F)F)cc2)c2c(O)ccc(-c3cc(F)nc(F)c3)c21 [Example 111, 1-(2-(4-(2,6-Difluoropyridin-4-yl)-7-hydroxy-3,3-dimethylindolin-1-yl)phenyl)-3-(4-(trifluoromethoxy)phenyl)urea, TFA] | 7.5 | 0.14
10 | CC1(C)CN(c2ccccc2NC(=O)Nc2ccc(OC(F)(F)F)cc2)c2c(O)ccc(-c3ccnc(F)c3)c21 [Example 112, 1-(2-(4-(2-Fluoropyridin-4-yl)-7-hydroxy-3,3-dimethylindolin-1-yl)phenyl)-3-(4-(trifluoromethoxy)phenyl) urea] | 9 | 0.43
11 | CC1(C)CN(c2ccccc2NC(=O)Nc2ccc(OC(F)(F)F)cc2)c2c(O)ccc(-c3ccncc3)c21 [Example 113, 1-(2-(7-Hydroxy-3,3-dimethyl-4-(pyridin-4-yl)indolin-1-yl)phenyl)-3-(4-(trifluoromethoxy)phenyl)urea] | 5.9 | 0.35
12 | CC1(C)CN(c2ccccc2NC(=O)Nc2ccc(OC(F)(F)F)cc2)c2c(O)ccc(-c3ccncc3Cl)c21 [Example 114, 1-(2-(4-(3-Chloropyridin-4-yl)-7-hydroxy-3,3-dimethylindolin-1-yl)phenyl)-3-(4-(trifluoromethoxy)phenyl) urea] | 26.5 | 0.53
13 | CC1(C)CN(c2ccccc2NC(=O)Nc2ccc(OC(F)(F)F)cc2)c2c(O)ccc(-c3cncc(Cl)c3)c21 [Example 116, 1-(2-(4-(5-Chloropyridin-3-yl)-7-hydroxy-3,3-dimethylindolin-1-yl)phenyl)-3-(4-(trifluoromethoxy)phenyl) urea] | 22.4 | 0.5
14 | CC1(C)CN(c2ccccc2NC(=O)Nc2ccc(OC(F)(F)F)cc2)c2c(O)ccc(-c3cncc(F)c3)c21 [Example 117, 1-(2-(4-(5-Fluoropyridin-3-yl)-7-hydroxy-3,3-dimethylindolin-1-yl)phenyl)-3-(4-(trifluoromethoxy)phenyl) urea] | 36 | 0.51
15 | Cc1cc(-c2ccc(O)c3c2C(C)(C)CN3c2ccccc2NC(=O)Nc2ccc(OC(F)(F)F)cc2)cnc1F [Example 119, 1-(2-(4-(6-Fluoro-5-methylpyridin-3-yl)-7-hydroxy-3,3-dimethylindolin-1-yl)phenyl)-3-(4-(trifluoromethoxy)phenyl) urea] | 3.3 | 0.47
16 | CC1(C)CN(c2ccccc2NC(=O)Nc2ccc(OC(F)(F)F)cc2)c2c(O)ccc(-c3ccc(C(F)(F)F)nc3)c21 [Example 120, 1-(2-(7-Hydroxy-3,3-dimethyl-4-(6-(trifluoromethyl)pyridin-3-yl)indolin-1-yl)phenyl)-3-(4-(trifluoromethoxy)phenyl)urea,TFA] | 7.9 | 0.14
17 | CC1(C)CN(c2ccccc2NC(=O)Nc2ccc(OC(F)(F)F)cc2)c2c(O)ccc(-c3ccc(Cl)s3)c21 [Example 121, 1-(2-(4-(5-Chlorothiophen-2-yl)-7-hydroxy-3,3-dimethylindolin-1-yl)phenyl)-3-(4-(trifluoromethoxy)phenyl)urea] | 113 | 0.2
18 | CC1(C)CN(c2ccccc2NC(=O)Nc2nc3ccc(Cl)cc3s2)c2c(O)ccc(-c3nc4ccc(F)cc4s3)c21 [Example 128, 1-(6-Chlorobenzo[d]thiazol-2-yl)-3-(2-(4-(6-fluorobenzo[d]thiazol-2-yl)-7-hydroxy-3,3-dimethylindolin-1-yl)phenyl)urea] | 108 | 0.24
19 | CC1(C)CN(c2ccccc2NC(=O)Nc2ccc(OC(F)(F)F)cc2)c2c(O)c(F)cc(-c3ccc(C(F)(F)F)cn3)c21 [Example 129, 1-(2-(6-Fluoro-7-hydroxy-3,3-dimethyl-4-(5-(trifluoromethyl)pyridin-2-yl)indolin-1-yl)phenyl)-3-(4-(trifluoromethoxy)phenyl)urea] | 15.3 | 0.71
20 | CC1(C)CN(c2ccccc2NC(=O)Nc2ccc(OC(F)(F)F)cc2)c2c(O)c(F)cc(-c3nc4ccc(Cl)cc4s3)c21 [Example 130, 1-(2-(4-(6-Chlorobenzo[d]thiazol-2-yl)-6-fluoro-7-hydroxy-3,3-dimethylindolin-1-yl)phenyl)-3-(4-(trifluoromethoxy)phenyl)urea] | 93.5 | 1.8
21 | CC1(C)CN(c2ccccc2NC(=O)Nc2ccc(OC(F)(F)F)cc2)c2c(O)ccc(-c3cnc(Cl)cn3)c21 [Example 131, 1-(2-(4-(5-Chloropyrazin-2-yl)-7-hydroxy-3,3-dimethylindolin-1-yl)phenyl)-3-(4-(trifluoromethoxy)phenyl)urea] | 9.1 | 0.42
22 | CC1(C)CN(c2ccccc2NC(=O)Nc2ccc(OC(F)(F)F)cc2)c2c(O)ccc(-c3cnccn3)c21 [Example 132, 1-(2-(7-Hydroxy-3,3-dimethyl-4-(pyrazin-2-yl)indolin-1-yl)phenyl)-3-(4-(trifluoromethoxy)phenyl)urea] | 18.8 | 1.29
23 | CC1(C)CN(c2ccccc2NC(=O)Nc2ccc(OC(F)(F)F)cc2)c2c(O)ccc(-c3ncc(F)cn3)c21 [Example 133, 1-(2-(4-(5-Fluoropyrimidin-2-yl)-7-hydroxy-3,3-dimethylindolin-1-yl)phenyl)-3-(4-(trifluoromethoxy)phenyl)urea] | 10.2 | 0.69
24 | CC1(C)CN(c2ccccc2NC(=O)Nc2nc3ccc(F)cc3s2)c2c(O)ccc(-c3nc4ccc(Cl)cc4o3)c21 [Example 134, 1-(2-(4-(6-Chlorobenzo[d]oxazol-2-yl)-7-hydroxy-3,3-dimethylindolin-1-yl)phenyl)-3-(6-fluorobenzo[d]thiazol-2-yl)urea] | 73.8 | 0.19
25 | CC1(C)CN(c2ccccc2NC(=O)Nc2ccc(OC(F)(F)F)cc2)c2c(O)cc(F)c(-c3ccc(C(F)(F)F)nc3)c21 [Example 135, 1-(2-(5-Fluoro-7-hydroxy-3,3-dimethyl-4-(6-(trifluoromethyl)pyridin-3-yl)indolin-1-yl)phenyl)-3-(4-(trifluoromethoxy)phenyl)urea] | 8.7 | 0.15
26 | CC1(C)CN(c2ccccc2NC(=O)Nc2ccc(OC(F)(F)F)cc2)c2c(O)cc(F)c(-c3nc4ccc(F)cc4s3)c21 [Example 144, 1-(2-(5-Fluoro-4-(6-fluorobenzo[d]thiazol-2-yl)-7-hydroxy-3,3-dimethylindolin-1-yl)phenyl)-3-(4-(trifluoromethoxy)phenyl)urea] | 10 | 0.5
27 | CC1(C)CN(c2ccccc2NC(=O)Nc2nc3ccc(F)cc3s2)c2c(O)cc(F)c(-c3nc4ccc(F)cc4s3)c21 [Example 146, 1-(2-(5-Fluoro-4-(6-fluorobenzo[d]thiazol-2-yl)-7-hydroxy-3,3-dimethylindolin-1-yl)phenyl)-3-(6-fluorobenzo[d]thiazol-2-yl)urea] | 47.2 | 0.3
